Source: patent US5925618A, “Peptides useful as somatostatin antagonists” (American Cyanamid Company, priority 1998, dated 1999)
Square brackets hold non-standard residues; d marks the D form. Peptide text beside a SMILES is read from it.

Tests used:
Male Sprague-Dawley rats [1] = test: Serum growth hormone levels in anaesthetized rats (peptide 1, BIM 23014C); assay type: in vivo, rat
Procedure: Evaluation in anaesthetized rats. Male Sprague-Dawley rats are anaesthetized with Sagatal and fitted so as to allow efficient intravenous treatment with control and test compounds as well as frequent blood sampling. Blood samples are tested for growth hormone (GH) levels by radioimmunoassay. Thirty minutes after the initiation of blood sampling, rats are given 5 μg, 25 μg or 50 μg of peptide 1.

Male Sprague-Dawley rats [2] = test: Spontaneous growth hormone secretory pulses in conscious rats; assay type: in vivo, rat; conditions: 300 μg/hr i.v. infusion for two hours
Procedure: Evaluation in conscious rats. Male Sprague-Dawley rats are fitted so as to allow efficient intravenous treatment with control and test compounds as well as frequent blood sampling. Blood samples are tested for growth hormone (GH) levels by radioimmunoassay. Blood samples are taken over a 12 hour period. At a 6 hour time point, peptide 1 is infused intravenously (300 μg/hr) into conscious, freely moving male rats for two hours. Control animals receive saline infusions over the same time period. […] It is known, SRIF is required for growth hormone pulsatility and that an SRIF antagonist abolishes said pulsatility (see Tannenbaum, G. S. and Ling, N., Endocrinology, 115, 1952-1957, 1984, incorporated herein by reference).

In the case of `CC[C@@H](C)[C@@H](NC(=O)[C@@H](Cc1ccccc1)NC(=O)[C@@H](Cc1c[nH]cn1)NC(C)=O)C(=O)N[C@H](CCCNC(=N)N)C(=O)N[C@H](Cc1c[nH]c2ccccc12)C(=O)N[C@H](Cc1ccccc1)C(N)=O` [Peptide 1, h-f-i-r-w-f] (Ac-[dH][dF][dI][dR][dW][dF]-NH2), the SGH (Male Sprague-Dawley rats [1]; 5 μg group, 90 min (time of 2nd peptide 1 dose, after BIM 23014C)) was 2.4 ng/mL, the SGH (Male Sprague-Dawley rats [1]; 5 μg peptide 1 at 30 min, sample 35 min) was 17.5 ng/mL and the SGH (Male Sprague-Dawley rats [1]; 5 μg peptide 1 at 30 min, sample 40 min) was 14.9 ng/mL. For the same compound, the SGH (Male Sprague-Dawley rats [1]; 5 μg peptide 1 at 30 min, sample 45 min) was 15.7 ng/mL, the SGH (Male Sprague-Dawley rats [1]; 5 μg peptide 1 group, i.v., 30 min (time of 1st peptide 1 dose)) was 12.2 ng/mL and the “serum GH levels after first dose” value (Male Sprague-Dawley rats [1]; 5 μg, 25 μg or 50 μg i.v. at 30 min) was “significant increase in serum GH levels resulting from the highest dose”. For the same compound, the SGH (Male Sprague-Dawley rats [1]; 25 μg group, 90 min (time of 2nd peptide 1 dose, after BIM 23014C)) was 5.1 ng/mL, the SGH (Male Sprague-Dawley rats [1]; 25 μg peptide 1 at 30 min, sample 35 min) was 18.4 ng/mL and the SGH (Male Sprague-Dawley rats [1]; 25 μg peptide 1 at 30 min, sample 40 min) was 17.5 ng/mL. It also gave an SGH (Male Sprague-Dawley rats [1]; 25 μg peptide 1 at 30 min, sample 45 min) of 14.0 ng/mL, an SGH (Male Sprague-Dawley rats [1]; 25 μg peptide 1 group, i.v., 30 min (time of 1st peptide 1 dose)) of 16.6 ng/mL and an SGH (Male Sprague-Dawley rats [1]; 50 μg group, 90 min (time of 2nd peptide 1 dose, after BIM 23014C)) of 1.9 ng/mL. For the same compound, the SGH (Male Sprague-Dawley rats [1]; 50 μg peptide 1 at 30 min, sample 35 min) was 50.2 ng/mL, the SGH (Male Sprague-Dawley rats [1]; 50 μg peptide 1 at 30 min, sample 40 min) was 23.4 ng/mL and the SGH (Male Sprague-Dawley rats [1]; 50 μg peptide 1 at 30 min, sample 45 min) was 15.5 ng/mL. The SGH (Male Sprague-Dawley rats [1]; 50 μg peptide 1 group, i.v., 30 min (time of 1st peptide 1 dose)) was 19.7 ng/mL, the SGH (Male Sprague-Dawley rats [1]; 2nd dose 5 μg peptide 1 at 90 min after BIM 23014C, sample 95 min) was 3.1 ng/mL and the SGH (Male Sprague-Dawley rats [1]; 2nd dose 5 μg peptide 1 at 90 min after BIM 23014C, sample 100 min) was 1.7 ng/mL. The SGH (Male Sprague-Dawley rats [1]; 2nd dose 5 μg peptide 1 at 90 min after BIM 23014C, sample 105 min) was 1.7 ng/mL, the SGH (Male Sprague-Dawley rats [1]; 2nd dose 5 μg peptide 1 at 90 min after BIM 23014C, sample 135 min) was 1.1 ng/mL and the SGH (Male Sprague-Dawley rats [1]; 2nd dose 25 μg peptide 1 at 90 min after BIM 23014C, sample 95 min) was 11.4 ng/mL. The SGH (Male Sprague-Dawley rats [1]; 2nd dose 25 μg peptide 1 at 90 min after BIM 23014C, sample 100 min) was 10.5 ng/mL, the SGH (Male Sprague-Dawley rats [1]; 2nd dose 25 μg peptide 1 at 90 min after BIM 23014C, sample 105 min) was 7.9 ng/mL and the SGH (Male Sprague-Dawley rats [1]; 2nd dose 25 μg peptide 1 at 90 min after BIM 23014C, sample 135 min) was 5.2 ng/mL. It also gave an SGH (Male Sprague-Dawley rats [1]; 2nd dose 50 μg peptide 1 at 90 min after BIM 23014C, sample 95 min) of 67.3 ng/mL, an SGH (Male Sprague-Dawley rats [1]; 2nd dose 50 μg peptide 1 at 90 min after BIM 23014C, sample 100 min) of 31.8 ng/mL and an SGH (Male Sprague-Dawley rats [1]; 2nd dose 50 μg peptide 1 at 90 min after BIM 23014C, sample 105 min) of 10.5 ng/mL. For the same compound, the SGH (Male Sprague-Dawley rats [1]; 2nd dose 50 μg peptide 1 at 90 min after BIM 23014C, sample 135 min) was 2.6 ng/mL, the “serum GH levels after second dose” value (Male Sprague-Dawley rats [1]; second dose 5 μg, 25 μg or 50 μg after BIM 23014C) was “even greater increase in serum GH levels from the highest dose” and the “spontaneous growth hormone secretory pulses” value (Male Sprague-Dawley rats [2]) was “abolition of these pulses”.
